# Measured values taken from US8691859B2 (priority 2005, dated 2014).
# Like-named read-outs stand apart in the source and are kept apart here.
# Assays:
# [1] = test system: B. anthracis GFP sterne spores; experiment: microbe, parasite or virus in culture; assay type: cell-based; conditions: Bacillus anthracis
# [2] = test system: B. anthracis GFP sterne vegetative cells; experiment: microbe, parasite or virus in culture; assay type: cell-based; conditions: Bacillus anthracis, read-out: MIC B. anthracis vegetative cells
# B. anthracis Ames = experiment: microbe, parasite or virus in culture; assay type: cell-based; conditions: Bacillus anthracis
# B. brevis = experiment: microbe, parasite or virus in culture; assay type: cell-based; conditions: Brevibacillus brevis
# B. licheniformis = experiment: microbe, parasite or virus in culture; assay type: cell-based; conditions: Bacillus licheniformis
# B. megaterium = experiment: microbe, parasite or virus in culture; assay type: cell-based; conditions: Priestia megaterium
# B. pumilus = experiment: microbe, parasite or virus in culture; assay type: cell-based; conditions: Bacillus pumilus
# B. vollum [3] = experiment: organism not typed; assay type: cell-based
# Ames spores [4] = experiment: microbe, parasite or virus in culture; assay type: cell-based, B. anthracis; conditions: Bacillus anthracis
# B. subtilis = experiment: microbe, parasite or virus in culture; assay type: cell-based; conditions: Bacillus subtilis
# S. aureus = experiment: microbe, parasite or virus in culture; assay type: cell-based; conditions: Staphylococcus aureus
# [5] = test system: Methicillin resistant S. aureus; experiment: microbe, parasite or virus in culture; assay type: cell-based; conditions: Staphylococcus aureus
# E. feacalis = experiment: organism not typed; assay type: cell-based
# E. coli = experiment: microbe, parasite or virus in culture; assay type: cell-based; conditions: Escherichia coli
# K. pneumoniae = experiment: microbe, parasite or virus in culture; assay type: cell-based; conditions: Klebsiella pneumoniae
# P. aeruginosa PAO1 = experiment: microbe, parasite or virus in culture; assay type: cell-based; conditions: Pseudomonas aeruginosa
# Y. pestis = experiment: microbe, parasite or virus in culture; assay type: cell-based; conditions: Yersinia pestis
# Burkholderia mallei = experiment: microbe, parasite or virus in culture; assay type: cell-based
# [6] = test system: Burkholderia pseudomallei; experiment: microbe, parasite or virus in culture; assay type: cell-based
# [7] = test system: Burkholderia thailandensis; experiment: microbe, parasite or virus in culture; assay type: cell-based
# B. cepacia = experiment: microbe, parasite or virus in culture; assay type: cell-based; conditions: Burkholderia cepacia
# B. vollum [8] = experiment: organism not typed; assay type: cell-based; remark: listed apart in the source
# Ames spores [9] = experiment: microbe, parasite or virus in culture; assay type: cell-based, B. anthracis; conditions: Bacillus anthracis; remark: listed apart in the source
# Sterne spores = assay type: cell-based, B. anthracis
# [10] = target: botulinum neurotoxin serotype A light chain (Clostridium botulinum, UniProt P0DPI0); assay type: biochemical, Clostridium botulinium
# Sequence of botulinum neurotoxin serotype A light chain (P0DPI0 2-448 limits assumed): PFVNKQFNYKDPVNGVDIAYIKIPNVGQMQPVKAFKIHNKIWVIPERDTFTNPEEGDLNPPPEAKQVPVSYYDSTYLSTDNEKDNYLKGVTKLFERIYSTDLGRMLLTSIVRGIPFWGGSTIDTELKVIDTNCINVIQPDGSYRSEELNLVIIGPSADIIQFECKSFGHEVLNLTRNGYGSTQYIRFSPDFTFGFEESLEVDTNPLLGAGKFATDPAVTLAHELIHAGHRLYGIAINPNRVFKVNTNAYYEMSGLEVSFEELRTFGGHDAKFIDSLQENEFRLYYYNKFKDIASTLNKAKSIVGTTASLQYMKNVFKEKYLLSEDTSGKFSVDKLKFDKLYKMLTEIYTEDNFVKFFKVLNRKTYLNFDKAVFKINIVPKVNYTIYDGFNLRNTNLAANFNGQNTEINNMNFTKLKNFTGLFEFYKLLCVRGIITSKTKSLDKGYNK
# anthrax lethal factor = anthrax lethal factor (Bacillus anthracis, UniProt P15917); assay type: biochemical
# Sequence of anthrax lethal factor (P15917 34-809 limits assumed): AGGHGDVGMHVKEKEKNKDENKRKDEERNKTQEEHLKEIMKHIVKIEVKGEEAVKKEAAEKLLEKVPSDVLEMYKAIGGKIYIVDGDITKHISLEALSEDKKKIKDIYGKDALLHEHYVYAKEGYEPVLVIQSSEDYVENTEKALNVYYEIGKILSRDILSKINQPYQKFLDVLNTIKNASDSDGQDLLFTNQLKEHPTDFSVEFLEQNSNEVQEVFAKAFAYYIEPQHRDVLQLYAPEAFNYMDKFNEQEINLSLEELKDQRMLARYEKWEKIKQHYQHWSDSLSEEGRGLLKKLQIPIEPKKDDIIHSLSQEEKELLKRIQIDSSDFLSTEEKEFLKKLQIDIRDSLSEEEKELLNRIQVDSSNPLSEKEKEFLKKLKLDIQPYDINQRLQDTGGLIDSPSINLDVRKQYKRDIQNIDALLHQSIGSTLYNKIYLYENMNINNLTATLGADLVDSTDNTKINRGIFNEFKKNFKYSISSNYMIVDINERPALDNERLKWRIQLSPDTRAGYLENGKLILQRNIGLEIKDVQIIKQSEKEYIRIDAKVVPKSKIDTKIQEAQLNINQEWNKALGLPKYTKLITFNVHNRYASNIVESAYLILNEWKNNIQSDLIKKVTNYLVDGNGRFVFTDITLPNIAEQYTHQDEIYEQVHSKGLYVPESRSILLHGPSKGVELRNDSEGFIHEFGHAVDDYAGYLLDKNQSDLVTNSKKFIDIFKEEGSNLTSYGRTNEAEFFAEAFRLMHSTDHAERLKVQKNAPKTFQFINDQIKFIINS
# Sterne GFP spores = assay type: cell-based, B. anthracis
# [11] = read-out: MIC B. anthracis spores
smiles,measurement,setting,value
"c1cc2cc(-c3ccc4cc(-c5ccc6oc(C7=NCCN7)cc6c5)[nH]c4c3)[nH]c2cc1C1=NCCN1 [NSC 369718, 6-(4,5-dihydro-1H-imidazol-2-yl)-2-[2-[2-(4,5-dihydro-1H-imidazol-2-yl)benzofuran-5-yl]-1H-indol-6-yl]-1H-indole]",MIC,[1]; [11],0.348 µg/mL
same,MIC,[2],0.696 µg/mL
same,MIC,B. anthracis Ames,1.39 µg/mL
same,MIC,B. brevis,0.174 µg/mL
same,MIC,B. licheniformis,1.39 µg/mL
same,MIC,B. megaterium,0.348 µg/mL
same,MIC,B. pumilus,0.348 µg/mL
same,MIC,B. vollum [3],0.348 µg/mL
same,MIC,Ames spores [4],0.174 µg/mL
same,MIC,B. subtilis,0.348 µg/mL
same,MIC,S. aureus,0.696 µg/mL
same,MIC,[5],2.79 µg/mL
same,MIC,E. feacalis,0.696 µg/mL
same,MIC,E. coli,1.39 µg/mL
same,MIC,K. pneumoniae,5.57 µg/mL
same,MIC,P. aeruginosa PAO1,1.39 µg/mL
same,MIC,Y. pestis,1.39 µg/mL
same,MIC,Burkholderia mallei,11.1 µg/mL
same,MIC,[6],2.79 µg/mL
same,MIC,[7],2.78 µg/mL
same,MIC,B. cepacia,22.3 µg/mL
same,MBC,B. vollum [8],0.348 µg/mL
same,MBC,Ames spores [9],0.174 µg/mL
same,effect on spore germination,Sterne spores,results to those of NSC 317881 were obtained
"NC(N)=NN=Cc1ccc2cc(-c3ccc(/C=N/N=C(N)N)cc3)sc2c1 [NSC 341909, 2-[[2-[4-[(E)-(diaminomethylidenehydrazinylidene)methyl]-phenyl]benzothiophen-6-yl]methylideneamino]guanidine]",MIC,[1]; [11],4.51 µg/mL
same,MIC,[2],18 µg/mL
same,inhibition of botulinum neurotoxin serotype A light chain metalloprotease activity,[10],inhibit
same,inhibition of the protease activity of anthrax lethal factor,anthrax lethal factor,inhibit
"C(=C\c1cc2cc(C3=NCCN3)ccc2[nH]1)/c1ccc(C2=NCCN2)cc1 [NSC 317885, 5-(4,5-dihydro-1H-imidazol-2-yl)-2-[(E)-2-[4-(4,5-dihydro-1H-imidazol-2-yl)phenyl]ethenyl]-1H-indole]",MIC,[1]; [11],> 17.1 µg/mL
same,MIC,[2],> 17.1 µg/mL
same,inhibition of the protease activity of anthrax lethal factor,anthrax lethal factor,inhibit
"N=C(N)c1ccc(Oc2ccc(-c3cc4ccc(C(=N)N)cc4[nH]3)cc2)cc1 [NSC 240898, 2-[4-(4-carbamimidoylphenoxy)phenyl]-1H-indole-6-carboximidamide]",MIC,[1]; [11],4.42 µg/mL
same,MIC,[2],4.42 µg/mL
same,inhibition of botulinum neurotoxin serotype A light chain metalloprotease activity,[10],inhibit
same,inhibition of the protease activity of anthrax lethal factor,anthrax lethal factor,inhibit
"C(=C\c1cc2ccc(C3=NCCN3)cc2[nH]1)/c1cc2ccc(C3=NCCN3)cc2[nH]1 [NSC 317880, 6-(4,5-dihydro-1H-imidazol-2-yl)-2-[(E)-2-[6-(4,5-dihydro-1H-imidazol-2-yl)-1H-indol-2-yl]ethenyl]-1H-indole]",MIC,[1]; [11],0.292 µg/mL
same,MIC,[2],1.17 µg/mL
same,MIC,B. anthracis Ames,0.584 µg/mL
same,MIC,B. brevis,0.584 µg/mL
same,MIC,B. licheniformis,2.33 µg/mL
same,MIC,B. megaterium,0.584 µg/mL
same,MIC,B. pumilus,0.146 µg/mL
same,MIC,Ames spores [4],0.146 µg/mL
same,MIC,B. subtilis,0.292 µg/mL
same,MIC,S. aureus,1.17 µg/mL
same,MIC,[5],2.33 µg/mL
same,MIC,E. feacalis,0.584 µg/mL
same,MIC,E. coli,0.584 µg/mL
same,MIC,K. pneumoniae,> 18.7 µg/mL
same,MIC,P. aeruginosa PAO1,1.17 µg/mL
same,MIC,Y. pestis,18.7 µg/mL
same,MIC,Burkholderia mallei,9.34 µg/mL
same,MIC,[6],18.7 µg/mL
same,MIC,[7],18.7 µg/mL
same,MIC,B. cepacia,18.7 µg/mL
same,MBC,Ames spores [9],0.146 µg/mL
same,effect on spore germination,Sterne spores,results to those of NSC 317881 were obtained
same,inhibition of the protease activity of anthrax lethal factor,anthrax lethal factor,inhibit
"N=C(N)c1ccc(/C=C/c2cc3ccc(C(=N)N)cc3[nH]2)cc1 [NSC 317886, 2-[(E)-2-(4-carbamimidoylphenyl)ethenyl]-1H-indole-6-carboximidamide]",MIC,[1]; [11],7.52 µg/mL
same,MIC,[2],15 µg/mL
same,inhibition of the protease activity of anthrax lethal factor,anthrax lethal factor,inhibit
"c1cc2cc(-c3ccc4cc(C5=NCCN5)[nH]c4c3)[nH]c2cc1C1=NCCN1 [NSC 330687, 2-(4,5-dihydro-1H-imidazol-2-yl)-6-[6-(4,5-dihydro-1H-imidazol-2-yl)-1H-indol-2-yl]-1H-indole]",MIC,[1]; [11],0.551 µg/mL
same,MIC,[2],1.1 µg/mL
same,MIC,B. anthracis Ames,1.1 µg/mL
same,MIC,B. brevis,0.276 µg/mL
same,MIC,B. licheniformis,2.21 µg/mL
same,MIC,B. megaterium,0.551 µg/mL
same,MIC,B. pumilus,0.138 µg/mL
same,MIC,Ames spores [4],0.276 µg/mL
same,MIC,B. subtilis,0.551 µg/mL
same,MIC,S. aureus,1.1 µg/mL
same,MIC,[5],2.2 µg/mL
same,MIC,E. feacalis,2.21 µg/mL
same,MIC,E. coli,1.1 µg/mL
same,MIC,K. pneumoniae,> 17.6 µg/mL
same,MIC,P. aeruginosa PAO1,17.6 µg/mL
same,MIC,Y. pestis,8.82 µg/mL
same,MIC,Burkholderia mallei,8.82 µg/mL
same,MIC,[6],> 17.6 µg/mL
same,MIC,[7],17.6 µg/mL
same,MIC,B. cepacia,4.41 µg/mL
same,MBC,Ames spores [9],0.276 µg/mL
same,effect on spore germination,Sterne spores,results to those of NSC 317881 were obtained
"c1cc2cc(-c3ccc(-c4cc5ccc(C6=NCCN6)cc5[nH]4)cc3)[nH]c2cc1C1=NCCN1 [NSC 317881, 6-(4,5-dihydro-1H-imidazol-2-yl)-2-[4-[6-(4,5-dihydro-1H-imidazol-2-yl)-1H-indol-2-yl]phenyl]-1H-indole]",MIC,"[1]; 22 h, read-out: MIC (figure legend)",0.084 µg/mL
same,MIC,[1]; [11],0.162 µg/mL
same,MIC,[2],0.646 µg/mL
same,MIC,B. anthracis Ames,0.32 µg/mL
same,MIC,B. brevis,0.646 µg/mL
same,MIC,B. licheniformis,0.646 µg/mL
same,MIC,B. megaterium,0.323 µg/mL
same,MIC,B. pumilus,0.021 µg/mL
same,MIC,Ames spores [4],0.162 µg/mL
same,MIC,B. subtilis,0.162 µg/mL
same,MIC,S. aureus,0.323 µg/mL
same,MIC,[5],0.323 µg/mL
same,MIC,E. feacalis,0.162 µg/mL
same,MIC,E. coli,0.646 µg/mL
same,MIC,K. pneumoniae,10.3 µg/mL
same,MIC,P. aeruginosa PAO1,0.323 µg/mL
same,MIC,Y. pestis,20.7 µg/mL
same,MIC,Burkholderia mallei,10.3 µg/mL
same,MIC,[6],> 20.7 µg/mL
same,MIC,[7],20.7 µg/mL
same,MIC,B. cepacia,> 20.7 µg/mL
same,MBC,Ames spores [9],0.162 µg/mL
same,effect on spore germination,Sterne spores,does not have an effect on spore germination
same,time after contact with germination medium by which treated spores were killed by heat,Sterne spores,≤ 15 min
same,reduction in cfu as compared to the DMSO control,Sterne GFP spores,considerable reduction
same,treatment time after which no viable spores were detected,Sterne GFP spores,~4 h
same,inhibition of the protease activity of anthrax lethal factor,anthrax lethal factor,inhibit
"N=C(N)c1ccc(/C=C/c2cc3cc(C(=N)N)ccc3[nH]2)cc1 [NSC 317884, 2-[(E)-2-(4-carbamimidoylphenyl)ethenyl]-1H-indole-5-carboximidamide]",MIC,[1]; [11],15 µg/mL
same,MIC,[2],> 15 µg/mL
same,inhibition of the protease activity of anthrax lethal factor,anthrax lethal factor,inhibit
"C(=C\c1cc2ccc(C3=NCCN3)cc2o1)/c1cc2ccc(C3=NCCN3)cc2[nH]1 [NSC 294201, 6-(4,5-dihydro-1H-imidazol-2-yl)-2-[(E)-2-[6-(4,5-dihydro-1H-imidazol-2-yl)benzofuran-2-yl]ethenyl]-1H-indole]",MIC,[1]; [11],4.68 µg/mL
same,MIC,[2],18.7 µg/mL
same,inhibition of the protease activity of anthrax lethal factor,anthrax lethal factor,inhibit
"N=C(N)c1ccc2oc(/C=C/C=C/c3cc4cc(C(=N)N)ccc4o3)cc2c1 [NSC 300511, 2-[(1E,3E)-4-(5-carbamimidoylbenzofuran-2-yl)buta-1,3-dienyl]benzofuran-5-carboximidamide]",MIC,[1]; [11],2.21 µg/mL
same,MIC,[2],17.7 µg/mL
same,inhibition of the protease activity of anthrax lethal factor,anthrax lethal factor,inhibit
"C(/C=C/c1cc2cc(C3=NCCN3)ccc2o1)=C\c1cc2cc(C3=NCCN3)ccc2o1 [NSC 308571, 2-[2-[(1E,3E)-4-[5-(4,5-dihydro-1H-imidazol-2-yl)benzofuran-2-yl]buta-1,3-dienyl]benzofuran-5-yl]-4,5-dihydro-1H-imidazole]",MIC,[1]; [11],9.9 µg/mL
same,MIC,[2],19.8 µg/mL
same,inhibition of the protease activity of anthrax lethal factor,anthrax lethal factor,inhibit
"N=C(N)c1ccc2[nH]c(/C=C/c3cc4cc(C(=N)N)ccc4o3)cc2c1 [NSC 290107, 2-[(E)-2-(5-carbamimidoylbenzofuran-2-yl)ethenyl]-1H-indole-5-carboximidamide]",MIC,[1]; [11],8.32 µg/mL
same,MIC,[2],> 16.6 µg/mL
same,inhibition of the protease activity of anthrax lethal factor,anthrax lethal factor,inhibit
"N=C(N)c1ccc2oc(CCc3cc4ccc(C(=N)N)cc4[nH]3)cc2c1 [NSC 290109, 2-[2-(5-carbamimidoylbenzofuran-2-yl)ethyl]-1H-indole-6-carboximidamide]",MIC,[1]; [11],8.36 µg/mL
same,MIC,[2],8.36 µg/mL
same,inhibition of the protease activity of anthrax lethal factor,anthrax lethal factor,inhibit
"N=C(N)c1ccc2oc(/C=C/C=C/C=C/c3cc4cc(C(=N)N)ccc4o3)cc2c1 [NSC 308574, 2-[(1E,3E,5E)-6-(5-carbamimidoylbenzofuran-2-yl)hexa-1,3,5-trienyl]benzofuran-5-carboximidamide]",MIC,[1]; [11],2.35 µg/mL
same,MIC,[2],9.38 µg/mL
same,inhibition of botulinum neurotoxin serotype A light chain metalloprotease activity,[10],inhibit
same,inhibition of the protease activity of anthrax lethal factor,anthrax lethal factor,inhibit
